Laboratory results published in PubChem BioAssay (NCI).
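Tested at 5 concentrations; 48 h exposure; 96-well plates; endpoints linearly interpolated, else capped at highest concentration. Here, GI50 denotes the concentration required for 50% inhibition of growth. Definition used: TGI = concentration required for complete inhibition of growth.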

How the values were obtained:
Assay in all cases: NCI tumour cell line growth inhibition, 48 h
786-0 renal = test system: 786-0 renal
M14 melanoma = test system: M14 melanoma
SW-620 colon = test system: SW-620 colon
MALME-3M melanoma = test system: MALME-3M melanoma
SR leukemia = test system: SR leukemia
SF-268 CNS = test system: SF-268 CNS
UACC-257 melanoma = test system: UACC-257 melanoma
OVCAR-8 ovarian = test system: OVCAR-8 ovarian
NCI-H226 lung = test system: NCI-H226 lung
RPMI-8226 leukemia = test system: RPMI-8226 leukemia

CNC(=O)OCc1c(COC(=O)NC)c(-c2ccc(-c3ccccc3)cc2)n(C)c1C
TGI (786-0 renal): 10.2 µM
TGI (M14 melanoma): 6.84 µM
TGI (SW-620 colon): 28.3 µM
TGI (MALME-3M melanoma): 10.6 µM
TGI (SR leukemia): > 100 µM
TGI (SF-268 CNS): 5.32 µM
TGI (UACC-257 melanoma): 37.3 µM
TGI (OVCAR-8 ovarian): 10.4 µM
TGI (NCI-H226 lung): 32.5 µM

C=C(C)[C@@H]1CC[C@]2(COCCCN)CC[C@]3(C)[C@H](CC[C@@H]4[C@@](C)(CCCNCCCN)[C@H](C(=C)C)CC[C@]43C)[C@@H]12
GI50 (786-0 renal): 1.56 µM
TGI (786-0 renal): 2.96 µM
GI50 (M14 melanoma): 1.9 µM
TGI (M14 melanoma): 3.62 µM
GI50 (SW-620 colon): 1.84 µM
TGI (SW-620 colon): 3.79 µM
GI50 (MALME-3M melanoma): 1.66 µM
TGI (MALME-3M melanoma): 3.12 µM
GI50 (RPMI-8226 leukemia): 2.2 µM
TGI (RPMI-8226 leukemia): 5.08 µM
GI50 (SR leukemia): 1.32 µM
TGI (SR leukemia): 3.59 µM
GI50 (SF-268 CNS): 1.84 µM
TGI (SF-268 CNS): 3.72 µM
GI50 (UACC-257 melanoma): 1.88 µM
TGI (UACC-257 melanoma): 3.67 µM
GI50 (OVCAR-8 ovarian): 1.91 µM
TGI (OVCAR-8 ovarian): 3.61 µM

CCCCCCCCn1ccc2cc(NC(=O)Cn3cc(CN4CCCCCC4)nn3)ccc21
GI50 (786-0 renal): 1.68 µM
TGI (786-0 renal): 3.07 µM
GI50 (M14 melanoma): 1.67 µM
TGI (M14 melanoma): 3.23 µM
GI50 (SW-620 colon): 1.73 µM
TGI (SW-620 colon): 3.33 µM
GI50 (MALME-3M melanoma): 1.67 µM
TGI (MALME-3M melanoma): 3.2 µM
GI50 (RPMI-8226 leukemia): 1.94 µM
TGI (RPMI-8226 leukemia): 4.31 µM
GI50 (SF-268 CNS): 1.8 µM
TGI (SF-268 CNS): 3.37 µM
GI50 (UACC-257 melanoma): 1.91 µM
TGI (UACC-257 melanoma): 3.58 µM
GI50 (OVCAR-8 ovarian): 1.87 µM
TGI (OVCAR-8 ovarian): 3.73 µM
GI50 (NCI-H226 lung): 2.23 µM
TGI (NCI-H226 lung): 5.07 µM

NC1=NN(c2ccccc2)C(=O)C1C(=O)CCC(=O)Nc1cccc(Cl)c1 (configuration not stated)
TGI (786-0 renal): > 100 µM
TGI (M14 melanoma): > 100 µM
TGI (SW-620 colon): > 100 µM
TGI (MALME-3M melanoma): > 100 µM
TGI (SF-268 CNS): > 100 µM
TGI (UACC-257 melanoma): > 100 µM
TGI (OVCAR-8 ovarian): > 100 µM
TGI (NCI-H226 lung): > 100 µM

CC(=O)Oc1cc2c(cc1OC(C)=O)C1(C)CCC2(C)c2cc(OC(C)=O)c(OC(C)=O)cc21
TGI (786-0 renal): > 100 µM
TGI (M14 melanoma): 90.5 µM
TGI (SW-620 colon): 63.4 µM
TGI (MALME-3M melanoma): > 100 µM
TGI (RPMI-8226 leukemia): 50.3 µM
TGI (SF-268 CNS): > 100 µM
TGI (UACC-257 melanoma): 40.4 µM
TGI (OVCAR-8 ovarian): > 100 µM

COc1ccc2nc3cc(Cl)ccc3c(Sc3ccc([N+](=O)[O-])cc3C)c2c1
TGI (786-0 renal): > 100 µM
TGI (M14 melanoma): > 100 µM
TGI (SW-620 colon): > 100 µM
TGI (MALME-3M melanoma): > 100 µM
TGI (SR leukemia): > 100 µM
TGI (SF-268 CNS): > 100 µM
TGI (UACC-257 melanoma): > 100 µM
TGI (OVCAR-8 ovarian): > 100 µM
TGI (NCI-H226 lung): > 100 µM

N/N=C\c1c2ccccc2c(=O)n2c1oc1ccccc12
GI50 (786-0 renal): 26.7 µM
TGI (786-0 renal): 61.7 µM
GI50 (M14 melanoma): 27.3 µM
TGI (M14 melanoma): 83.6 µM
GI50 (SW-620 colon): 15.1 µM
TGI (SW-620 colon): 32.5 µM
GI50 (RPMI-8226 leukemia): 9.18 µM
TGI (RPMI-8226 leukemia): 29 µM
GI50 (SR leukemia): 5.61 µM
TGI (SR leukemia): 26 µM
GI50 (SF-268 CNS): 15.9 µM
TGI (SF-268 CNS): 30.4 µM
GI50 (UACC-257 melanoma): 17.3 µM
TGI (UACC-257 melanoma): 39 µM
GI50 (OVCAR-8 ovarian): 19.4 µM
TGI (OVCAR-8 ovarian): 49.4 µM
GI50 (NCI-H226 lung): 14.6 µM
TGI (NCI-H226 lung): 33.9 µM

C[C@]12CC=CC(=O)[C@@]1(C)CCC(=O)C2
TGI (786-0 renal): > 100 µM
TGI (M14 melanoma): > 100 µM
TGI (SW-620 colon): > 100 µM
TGI (MALME-3M melanoma): > 100 µM
TGI (SR leukemia): > 100 µM
TGI (SF-268 CNS): > 100 µM
TGI (UACC-257 melanoma): > 100 µM
TGI (OVCAR-8 ovarian): > 100 µM
TGI (NCI-H226 lung): > 100 µM

CC(=O)C1C(c2ccccc2)C2(C)OC(=O)C(C#N)C12C (configuration not stated)
TGI (786-0 renal): > 100 µM
TGI (M14 melanoma): > 100 µM
TGI (SW-620 colon): > 100 µM
TGI (MALME-3M melanoma): > 100 µM
TGI (RPMI-8226 leukemia): > 100 µM
TGI (SF-268 CNS): > 100 µM
TGI (OVCAR-8 ovarian): > 100 µM
TGI (NCI-H226 lung): > 100 µM

CC(=O)c1ccc(NC(=O)/C(CC(=O)c2sc(-c3cccnc3)nc2C)=N/NC(N)=O)cc1
TGI (786-0 renal): 83.8 µM
TGI (M14 melanoma): > 100 µM
TGI (SW-620 colon): > 100 µM
TGI (MALME-3M melanoma): > 100 µM
TGI (RPMI-8226 leukemia): 54.4 µM
TGI (SR leukemia): > 100 µM
TGI (SF-268 CNS): > 100 µM
TGI (OVCAR-8 ovarian): > 100 µM
TGI (NCI-H226 lung): 75.6 µM

O=S(=O)(C1=CC(S(=O)(=O)c2ccccc2)CN(Cc2ccccc2)C1c1cccc2ccccc12)c1ccccc1 (configuration not stated)
TGI (786-0 renal): > 69 µM
TGI (M14 melanoma): > 69 µM
TGI (SW-620 colon): > 69 µM
TGI (MALME-3M melanoma): > 69 µM
TGI (RPMI-8226 leukemia): > 69 µM
TGI (SF-268 CNS): > 69 µM
TGI (UACC-257 melanoma): > 69 µM
TGI (OVCAR-8 ovarian): > 69 µM
TGI (NCI-H226 lung): > 69 µM

Nc1ncc(-c2cnn(C3CCNCC3)c2)cc1-c1nc2cc(Cl)ccc2o1
GI50 (786-0 renal): 1.71 µM
TGI (786-0 renal): 3.16 µM
GI50 (M14 melanoma): 1.79 µM
TGI (M14 melanoma): 3.25 µM
GI50 (SW-620 colon): 0.363 µM
TGI (SW-620 colon): 1.34 µM
GI50 (MALME-3M melanoma): 1.71 µM
TGI (MALME-3M melanoma): 3.37 µM
GI50 (SF-268 CNS): 1.38 µM
TGI (SF-268 CNS): 2.8 µM
GI50 (UACC-257 melanoma): 1.29 µM
TGI (UACC-257 melanoma): 2.59 µM

C=C(C)C1CC2(C)C(C)CC(O)CC2C(OC(=O)C=C(C)C)C1O (configuration not stated)
TGI (786-0 renal): > 100 µM
TGI (M14 melanoma): > 100 µM
TGI (MALME-3M melanoma): > 100 µM
TGI (SR leukemia): 51.9 µM
TGI (SF-268 CNS): > 100 µM
TGI (UACC-257 melanoma): > 100 µM
TGI (OVCAR-8 ovarian): > 100 µM
TGI (NCI-H226 lung): 46.2 µM

NC(CCCC(N)P(=O)(O)O)P(=O)(O)O (configuration not stated)
TGI (786-0 renal): > 100 µM
TGI (M14 melanoma): > 100 µM
TGI (SW-620 colon): > 100 µM
TGI (MALME-3M melanoma): > 100 µM
TGI (RPMI-8226 leukemia): > 100 µM
TGI (UACC-257 melanoma): > 100 µM
TGI (OVCAR-8 ovarian): > 100 µM
TGI (NCI-H226 lung): > 100 µM

CCCCCCCCCCCCCP(=O)(O)O
TGI (786-0 renal): > 100 µM
TGI (M14 melanoma): > 100 µM
TGI (SW-620 colon): > 100 µM
TGI (MALME-3M melanoma): > 100 µM
TGI (SF-268 CNS): > 100 µM
TGI (UACC-257 melanoma): > 100 µM
TGI (OVCAR-8 ovarian): > 100 µM
TGI (NCI-H226 lung): > 100 µM

CCN1CCCc2cc3c(C(F)(F)F)cc(=O)oc3cc21
TGI (786-0 renal): > 100 µM
TGI (M14 melanoma): > 100 µM
TGI (SW-620 colon): > 100 µM
TGI (SF-268 CNS): > 100 µM
TGI (UACC-257 melanoma): > 100 µM
TGI (OVCAR-8 ovarian): > 100 µM
TGI (NCI-H226 lung): > 100 µM

C=CC[P@]1(=O)O[C@H](c2ccccc2)[C@H](C)N1C
TGI (786-0 renal): > 100 µM
TGI (M14 melanoma): > 100 µM
TGI (SW-620 colon): > 100 µM
TGI (MALME-3M melanoma): > 100 µM
TGI (RPMI-8226 leukemia): > 100 µM
TGI (SR leukemia): > 100 µM
TGI (SF-268 CNS): > 100 µM
TGI (OVCAR-8 ovarian): > 100 µM
TGI (NCI-H226 lung): > 100 µM

CC(C)C(O)(C(C)C)C(C)C
TGI (786-0 renal): > 100 µM
TGI (M14 melanoma): > 100 µM
TGI (MALME-3M melanoma): > 100 µM
TGI (RPMI-8226 leukemia): > 100 µM
TGI (SR leukemia): > 100 µM
TGI (SF-268 CNS): > 100 µM
TGI (UACC-257 melanoma): > 100 µM
TGI (OVCAR-8 ovarian): > 100 µM
TGI (NCI-H226 lung): > 100 µM

CCN(CC)CCNC(Cc1ccccc1)c1ccc(OCc2ccccc2)cc1 (configuration not stated)
GI50 (786-0 renal): 3.61 µM
TGI (786-0 renal): 17.9 µM
GI50 (M14 melanoma): 2.07 µM
TGI (M14 melanoma): 5.09 µM
GI50 (SW-620 colon): 5.53 µM
TGI (SW-620 colon): 20 µM
GI50 (RPMI-8226 leukemia): 2.4 µM
TGI (RPMI-8226 leukemia): 6.84 µM
GI50 (SR leukemia): 2.35 µM
TGI (SR leukemia): 6.74 µM
GI50 (SF-268 CNS): 7.57 µM
TGI (SF-268 CNS): 22.3 µM
GI50 (UACC-257 melanoma): 2.13 µM
TGI (UACC-257 melanoma): 4.85 µM
GI50 (OVCAR-8 ovarian): 10.7 µM
TGI (OVCAR-8 ovarian): 24.4 µM
GI50 (NCI-H226 lung): 13.8 µM
TGI (NCI-H226 lung): 34.8 µM
